Counter-ions that a name gives are not always drawn.

T1 sequence (Q93009 whole entry): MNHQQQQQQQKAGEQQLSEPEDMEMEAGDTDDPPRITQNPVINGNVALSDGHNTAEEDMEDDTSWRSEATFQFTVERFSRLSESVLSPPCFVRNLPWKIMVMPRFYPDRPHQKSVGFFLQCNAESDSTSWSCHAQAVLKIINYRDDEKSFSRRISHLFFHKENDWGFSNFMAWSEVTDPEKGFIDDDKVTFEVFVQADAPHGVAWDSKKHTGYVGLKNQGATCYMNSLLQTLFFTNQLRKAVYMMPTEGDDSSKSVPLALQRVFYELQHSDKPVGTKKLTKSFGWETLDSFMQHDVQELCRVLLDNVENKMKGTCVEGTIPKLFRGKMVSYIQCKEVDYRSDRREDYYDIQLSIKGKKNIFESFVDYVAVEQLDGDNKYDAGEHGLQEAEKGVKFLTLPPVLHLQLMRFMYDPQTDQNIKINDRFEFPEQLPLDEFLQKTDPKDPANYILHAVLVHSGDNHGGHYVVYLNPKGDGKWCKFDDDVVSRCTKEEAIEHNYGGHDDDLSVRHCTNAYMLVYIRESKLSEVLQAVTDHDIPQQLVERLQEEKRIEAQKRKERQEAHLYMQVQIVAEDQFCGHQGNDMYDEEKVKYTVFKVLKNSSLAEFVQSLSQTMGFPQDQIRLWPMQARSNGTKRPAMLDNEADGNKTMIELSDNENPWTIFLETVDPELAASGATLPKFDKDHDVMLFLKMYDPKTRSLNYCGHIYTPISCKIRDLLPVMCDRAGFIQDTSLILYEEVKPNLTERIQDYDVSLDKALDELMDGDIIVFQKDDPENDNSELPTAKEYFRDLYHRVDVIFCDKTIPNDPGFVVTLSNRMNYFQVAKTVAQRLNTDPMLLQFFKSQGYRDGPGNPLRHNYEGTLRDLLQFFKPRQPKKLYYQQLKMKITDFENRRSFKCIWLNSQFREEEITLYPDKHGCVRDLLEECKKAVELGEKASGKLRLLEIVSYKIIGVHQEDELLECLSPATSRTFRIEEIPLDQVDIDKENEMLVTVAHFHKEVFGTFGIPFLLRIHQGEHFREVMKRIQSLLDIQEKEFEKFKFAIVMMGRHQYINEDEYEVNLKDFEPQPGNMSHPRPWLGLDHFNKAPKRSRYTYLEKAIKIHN

The test has as its target T1, full-length USP7 (Homo sapiens, UniProt Q93009).
T1 construct: A 45 μl reaction volume containing full-length USP7 (0.5-1.0 nM)
The experiment in a line: Enzymatic assay to determine % inhibition of USP7 activity at 1 μM test compound (Ubiquitin-Rhodamine 110 cleavage). The test is classed as biochemical. The conditions noted are these: 1 μM of the test compound; given where IC50 has not been determined yet; mean of two repetitions. Here is the method: Enzymatic Assay to Determine % Value of Inhibition […] Activity at 1 μM […]
A 45 μl reaction volume containing full-length USP7 (0.5-1.0 nM) in 50 mM HEPES pH 7.5, 150 mM NaCl, 2 mM DTT, 1 mg/ml BSA and 0.05% Tween20 (DUB assay buffer) was assembled in wells of 96 well half area black flat bottom plates. All test compounds were first dissolved to 30 mM stocks in DMSO and subsequently introduced to enzyme 15 min after USP7 incubation with DTT at room temperature. The final concentration of tested compounds was 1 μM. The enzymatic reaction was started by adding 0.5 μM Ubiquitin-Rhodamine 110 (final concentration) and allowed to proceed for 30-60 min at 25° C., 250 RPM shaking before Rhodamine fluorescence (485 nm excitation/535 nm emission) was measured using Tecan Spark M10 plate reader. Percentage of inhibition at 1 μM was determined by the mean of two repetitions for these concentrations using Microsoft Excel software.
Turning to `C[C@H]1CNCC(Cc2c(F)cc(Cl)cc2-c2ncnn3cc(Cn4c(=O)ccn(C)c4=O)cc23)O1` (single isomer, unassigned) [Example 120, hydrochloride], the inhibition (as a rule, the drop in the measured response relative to a control, in per cent) at 1 µM is greater than 70%. Under `Cc1cc(Cl)cc(-c2ncnn3cc(Cn4c(=O)cc[nH]c4=O)cc23)c1CC1CNC[C@H](C)O1` (single isomer, unassigned) [Example 121, dihydrochloride] stands 50 to 70%; under `Cc1cc(Cl)cc(-c2ncnn3cc(Cn4c(=O)ccn(CC(=O)O)c4=O)cc23)c1C[C@@H]1CNCCO1` (single isomer, unassigned) [Example 125, hydrochloride], 20 to 49%. With `Cc1cc(Cl)cc(-c2ncnn3cc(CN4C(=O)C5C(C4=O)C5(C)C)cc23)c1O[C@@H]1CC[C@@H](C)NC1` (stereo partly drawn) [Example 3, 3-((4-(5-chloro-3-methyl-2-(((3R,6R)-6-methylpiperidin-3-yl)oxy)phenyl)pyrrolo[2,1-f][1,2,4]triazin-6-yl)methyl)-6,6-dimethyl-3-azabicyclo[3.1.0]hexane-2,4-dione hydrochloride], the inhibition at 1 µM was in the range of 20 to 49%. Under `Cc1cc(Cl)cc(-c2ncnn3cc(CN4C(=O)C5C(C4=O)C5(C)C)cc23)c1OC1CCNCC1` (stereo not shown) [Example 4, 3-((4-(5-chloro-3-methyl-2-(piperidin-4-yloxy)phenyl)pyrrolo[2,1-f][1,2,4]triazin-6-yl)methyl)-6,6-dimethyl-3-azabicyclo[3.1.0]hexane-2,4-dione hydrochloride] stands 50 to 70%; under `CC1(C)C2C(=O)N(Cc3cc4c(-c5cc(C(F)(F)F)cc6ccn(C7CCNC7)c56)ncnn4c3)C(=O)C21` (stereo not shown) [Example 5, 6,6-dimethyl-3-((4-(1-(pyrrolidin-3-yl)-5-(trifluoromethyl)-1H-indol-7-yl)pyrrolo[2,1-f][1,2,4]triazin-6-yl)methyl)-3-azabicyclo[3.1.0]hexane-2,4-dione 2,2,2-trifluoroacetate], 20 to 49%.

As for `Cc1cc(Cl)cc(-c2ncnn3cc(CN4C(=O)C5C(C4=O)C5(C)C)cc23)c1O[C@@H]1CN[C@H](C(=O)O)C1` (stereo partly drawn) [Example 7, (2S,4S)-4-(4-chloro-2-(6-((6,6-dimethyl-2,4-dioxo-3-azabicyclo[3.1.0]hexan-3-yl)methyl)pyrrolo[2,1-f][1,2,4]triazin-4-yl)-6-methylphenoxy)pyrrolidine-2-carboxylic acid hydrochloride], the inhibition at 1 µM is less than 20%. `Cc1cc(Cl)cc(-c2ncnn3cc(CN4C(=O)C5C(C4=O)C5(C)C)cc23)c1C(=O)N1CC(F)(F)C1` (stereo not shown) [Example 8, 3-((4-(5-chloro-2-(3,3-difluoroazetidine-1-carbonyl)-3-methylphenyl)pyrrolo[2,1-f][1,2,4]triazin-6-yl)methyl)-6,6-dimethyl-3-azabicyclo[3.1.0]hexane-2,4-dione hydrochloride] registered an inhibition at 1 µM of 20 to 49%. The figure for `Cc1cc(Cl)cc(-c2ncnn3cc(CN4C(=O)C5C(C4=O)C5(C)C)cc23)c1OCCN` (stereo not shown) [Example 9, 3-((4-(2-(2-aminoethoxy)-5-chloro-3-methylphenyl)pyrrolo[2,1-f][1,2,4]triazin-6-yl)methyl)-6,6-dimethyl-3-azabicyclo[3.1.0]hexane-2,4-dione hydrochloride] is 50 to 70%; for `Cc1cc(Cl)cc(-c2ncnn3cc(CN4C(=O)C5C(C4=O)C5(C)C)c(C)c23)c1O[C@H]1CCCNC1` (stereo partly drawn) [Example 12, 3-((4-(5-chloro-3-methyl-2-(((S)-piperidin-3-yl)oxy)phenyl)-5-methylpyrrolo[2,1-f][1,2,4]triazin-6-yl)methyl)-6,6-dimethyl-3-azabicyclo[3.1.0]hexane-2,4-dione hydrochloride] it is 50 to 70%. The figure for `CCOC(=O)c1cc2c(-c3cc(Cl)cc(C)c3O[C@H]3CCCNC3)ncnn2c1` [Example 15, ethyl (S)-4-(5-chloro-3-methyl-2-(piperidin-3-yloxy)phenyl)pyrrolo[2,1-f][1,2,4]triazine-6-carboxylate hydrochloride] is 20 to 49%; for `Cc1cc(Cl)cc(-c2ncnn3cc(C(=O)O)cc23)c1O[C@H]1CCCNC1` [Example 16, (S)-4-(5-chloro-3-methyl-2-(piperidin-3-yloxy)phenyl)pyrrolo[2,1-f][1,2,4]triazine-6-carboxylic acid hydrochloride] it is less than 20%; for `Cc1cc(Cl)cc(-c2ncnn3cc(CO)cc23)c1O[C@H]1CCCNC1` [Example 17, (S)-(4-(5-chloro-3-methyl-2-(piperidin-3-yloxy)phenyl)pyrrolo[2,1-f][1,2,4]triazin-6-yl)methanol hydrochloride] it is less than 20%. Under `Cc1cc(Cl)cc(-c2ncnn3cc(C(N)=O)cc23)c1O[C@H]1CCCNC1` [Example 18, (S)-4-(5-chloro-3-methyl-2-(piperidin-3-yloxy)phenyl)pyrrolo[2,1-f][1,2,4]triazine-6-carboxamide hydrochloride] stands less than 20%; under `CC1(C)C2C(=O)N(Cc3cc4c(-c5cc(C(F)(F)F)cc6ccn(CC7(O)CCNCC7)c56)ncnn4c3)C(=O)C21` (stereo not shown) [Example 19, 3-((4-(1-((4-hydroxypiperidin-4-yl)methyl)-5-(trifluoromethyl)-1H-indol-7-yl)pyrrolo[2,1-f][1,2,4]triazin-6-yl)methyl)-6,6-dimethyl-3-azabicyclo[3.1.0]hexane-2,4-dione hydrochloride], 50 to 70%; under `Cc1cc(Cl)cc(-c2ncnn3cc(CN4C(=O)C5C(C4=O)C5(C)C)cc23)c1O[C@@H]1CN[C@@H](C)C1` (stereo partly drawn) [Example 20, 3-((4-(5-chloro-3-methyl-2-(((3S,5S)-5-methylpyrrolidin-3-yl)oxy)phenyl)pyrrolo[2,1-f][1,2,4]triazin-6-yl)methyl)-6,6-dimethyl-3-azabicyclo[3.1.0]hexane-2,4-dione hydrochloride], 20 to 49%. On to `Cc1c(CN2C(=O)C3C(C2=O)C3(C)C)cn2ncnc(-c3cc(Cl)cc4ccn(CC5(F)CCNCC5)c34)c12` (stereo not shown) [Example 21, 3-((4-(5-chloro-1-((4-fluoropiperidin-4-yl)methyl)-1H-indol-7-yl)-5-methylpyrrolo[2,1-f][1,2,4]triazin-6-yl)methyl)-6,6-dimethyl-3-azabicyclo[3.1.0]hexane-2,4-dione hydrochloride], for which the inhibition at 1 µM lay within 50 to 70%.

The compound `Cc1cc(Cl)cc(-c2ncnn3cc(CN4C(=O)C5C(C4=O)C5(C)C)cc23)c1C(=O)N1C[C@@H](N)[C@@H](C)C1` (stereo partly drawn) [Example 23, 3-((4-(2-((3S,4S)-3-amino-4-methylpyrrolidine-1-carbonyl)-5-chloro-3-methylphenyl)pyrrolo[2,1-f][1,2,4]triazin-6-yl)methyl)-6,6-dimethyl-3-azabicyclo[3.1.0]hexane-2,4-dione 2,2,2-trifluoroacetate] came in with an inhibition at 1 µM of 50 to 70%. In turn, `CC1(C)C2C(=O)N(Cc3cc4c(-c5cc(Cl)cc6ccn(CC7CNCC(F)(F)C7)c56)ncnn4c3)C(=O)C21` (stereo not shown) [Example 26, 3-((4-(5-chloro-1-((5,5-difluoropiperidin-3-yl)methyl)-1H-indol-7-yl)pyrrolo[2,1-f][1,2,4]triazin-6-yl)methyl)-6,6-dimethyl-3-azabicyclo[3.1.0]hexane-2,4-dione dihydrochloride] registered an inhibition at 1 µM of 20 to 49%.

The values are drawn from patent US20240150362A1, “Substituted Pyrrolotriazines” (Molecure S.A., priority 2022, published 2024).
